“Also recorded” adds a separate entry of the source. Like-named read-outs stand apart in the source and are kept apart here. Where a SMILES comes first, the peptide text is derived from it. Where no end group is shown, it is not given here.

In test [1] the test system is IMQ-based psoriasis model. Kind of test: IMQ-based psoriasis model. It is filed as in vivo, mouse. Conditions: FIG. 15B; for erythema, thickening and scaling (cumulative score): versus PBS.
The test system of test [2] is IMQ-based psoriasis model. Kind of test: IMQ-based psoriasis model. The format is in vivo, mouse. To be noted: for resistance to IMQ-induction of psoriasis: treated mice versus PBS control. The method, then: To elucidate the molecular mechanisms for the Pep1-E1A blocker, H&E and immunostaining for proliferative and inflammatory markers was performed.
For test [3], the target named is T1, CtBP (Homo sapiens, UniProt Q13363).
T1 construct: 6xHis
Kind of test: Fluorescence polarization Kd determination of FITC-peptide with CtBP. It is filed as binding. The method, then: (§1) Additional peptides were tested for in vitro inhibitory potency (Table 5). For Kd determination, FITC-labeled peptide (FITC-peptide) was incubated with varying concentrations of CtBP. The fluorescence polarization values of the FITC-peptide were measured and plotted against CtBP concentration to determine Kd of the FITC-peptide with CtBP using the Prism program. […] For IC50 determination, a fluorescence polarization assay was utilized. […] Increasing concentrations of unlabeled peptide were added to compete with the FITC-labeled peptide, leading to a decreased fluorescence polarization value.

In test [4] the target is T2, CtBP-E1A interaction (Homo sapiens, UniProt Q13363). Kind of test: CtBP-E1A interaction inhibition (AlphaScreen / fluorescence polarization competition assay). It is filed as binding. Conditions: IC50 value, Table 3; inhibition of CtBP/E1A protein interaction. The method, then: The ability of peptides to inhibit CtBP binding can be monitored by two biochemical assays. An AlphaScreen assay (Perkin-Elmer) was developed that is capable of detecting the CtBP-E1A interaction. Purified GST-E1A and 6xHis-CtBP are incubated with glutathione-conjugated donor beads and nickel-chelated acceptor beads respectively. The interaction between CtBP and E1A brings the donor and acceptor beads in close proximity, which produces a fluorescence signal after laser excitation and can be detected using the EnVision plate reader. A peptide that inhibits this interaction will limit the proximity of the beads and thus a loss in fluorescence signal will occur. In addition to the alphascreen, a fluorescence polarization based assay with a fluorescein-labeled 14mer E1A peptide ([…] (SEQ ID NO: 1)) was also developed. Purified 6xHis-CtBP is incubated with the fluorescein-labeled E1A peptide and changes in the polarization value of the labeled peptide are detected using the EnVision plate reader. A decrease in peptide binding to CtBP can be detected by an […], and used to monitor peptide inhibition. IC50 values of designed peptides can be determined using either of these assays through the addition of increasing amounts in each well and monitoring the degree of inhibition of the CtBP-E1A interaction.
Multiple amino acid sequences may appear at positions outside the conserved peptide motif. The most frequently occurring amino acids in these positions are used to design the peptides that bind CtBP with the highest affinity. The affinity of these new peptides is compared to the original 14mer E1A peptide (SEQ ID NO:1) by comparing the IC50 of these peptides in inhibiting the CtBP/E1A protein interaction in a competition assay. The peptide identified from phage display that competes with the CtBP/E1A protein interaction better than the original 14mer E1A peptide is selected and conjugated to the cell penetrating peptide of the present invention. Also provided in Table 3 are […] for selected peptides.
The ability of peptides to inhibit CtBP binding can be monitored by two biochemical assays. An AlphaScreen assay (Perkin-Elmer) was developed that is capable of detecting the CtBP-E1A interaction. Purified GST-E1A and 6xHis-CtBP are incubated with glutathione-conjugated donor beads and nickel-chelated acceptor beads respectively. The interaction between CtBP and E1A brings the donor and acceptor beads in close proximity, which produces a fluorescence signal after laser excitation and can be detected using the EnVision plate reader. A peptide that inhibits this interaction will limit the proximity of the beads and thus a loss in fluorescence signal will occur. In addition to the alphascreen, a fluorescence polarization based assay with a fluorescein-labeled 14mer E1A peptide ([…] (SEQ ID NO: 1)) was also developed. Purified 6xHis-CtBP is incubated with the fluorescein-labeled E1A peptide and changes in the polarization value of the labeled peptide are detected using the EnVision plate reader. A decrease in peptide binding to CtBP can be detected by an […], and used to monitor peptide inhibition. IC50 values of designed peptides can be determined using either of these assays through the addition of increasing amounts in each well and monitoring the degree of inhibition of the CtBP-E1A interaction. Also provided in Table 4 are IC50 for selected peptides.
For orientation: Bead proximity is the source of the signal in Alpha formats.

In test [5] the target is T2, CtBP-E1A interaction. To be noted: read-out: IC50 of inhibition of the CtBP/E1A interaction in vitro; Zhang et al. 2000; cited from earlier work.
Test [6] deals with T1, CtBP. The test can be described thus: Fluorescence polarization competition of unlabeled peptide with FITC-labeled 14mer peptide. The format is binding. Here is the method:
as §1
A general note: In fluorescence polarisation assays a small probe gives low polarisation when free and higher when bound to something large.

Test [7] deals with 3T3 cells. Kind of test: Cell viability, 3T3. The format is cell-based, mouse. Conditions: 3T3, does not significantly overexpress CtBP, FIG. 5. An excerpt:
(§2) The Tat peptide alone has no effect on these cells.

In test [8] the test system is H1299 non-small cell lung carcinoma cells. Kind of test: Cell viability, H1299. It is filed as cell-based, human. To be noted: H1299, CtBP overexpressing, FIG. 5.
Excerpt: as §2

Test [9] deals with A375 melanoma cells. Kind of test: Cell viability, A375. The format is cell-based. Conditions: A375, CtBP overexpressing, FIG. 5.
Excerpt: as §2

In test [10] the test system is CtBP target genes BAX, BRCA1, and E-Cadherin. The test can be described thus: Real-time PCR of endogenous CtBP target genes in H1299 cells. It is filed as cell-based, human. To be noted: increasing concentrations, FIG. 6. The method, then:
Total RNA was isolated using TRIzol (Invitrogen) as previously described (Zhang et al., 2006). One hundred nanograms of RNA from each sample were subjected to qRT-PCR (ThermoFisher). An 18S probe was used as an internal control. Each sample was examined in triplicate. Relative RNA expression levels were determined by normalizing with internal controls, the values were calculated using the comparative Ct method.
Subsequently, the transcription levels of the endogenous CtBP target genes BAX, BRCA1, and E-Cadherin in Tat-E1A treated H1299 cells were evaluated using real-time PCR.
(Quantitative PCR measures a nucleic acid by following its amplification.)

In the case of “GRKKRRQRRRPPQGGEQTVPVDLSVARPRGL (also: conjugated to FITC) [Tat-E1A peptide]”, the psoriasis-like phenotype result in test [1] (Example 12, subcutaneously applied on the skin) is given as “significantly reduced”. Moreover, the “resistance to IMQ-induction of psoriasis” value in test [2] was “showed resistance”.
Take `CC(C)C[C@H](NC(=O)[C@H](CC(=O)O)NC(=O)[C@H](CC(C)C)NC(=O)[C@@H]1CCCN1C(=O)[C@H](CCC(N)=O)NC(=O)CNC(=O)[C@@H]1CCCN1C(=O)[C@@H](N)CCC(=O)O)C(=O)N[C@@H](CO)C(=O)N[C@@H](CS)C(=O)N[C@@H](CCCCN)C(=O)N[C@@H](CCCNC(=N)N)C(=O)N1CCC[C@H]1C(=O)N[C@@H](CCCNC(=N)N)C(=O)O` [Wild-type, reference compound] (H-EPGQPLDLSCKRPR-OH; N-terminus and C-terminus assumed): the Kd (usually a measure of binding affinity in units of concentration) in test [3] amounted to 4.3 µM. Moreover, the figures for the IC50 in test [4], in test [5] and in test [6] were 7.26 µM, about 7 µM and 6 µM, respectively.
For “KETWWETWWTEWSQPKKKRKVLEEPGQPLDLSCKRPR [Pep1-E1A]”, the “erythema, thickening and scaling (cumulative score)” value in test [1] is “Reduction”. Also, in test [2] (applied on the skin (data not shown)), the psoriasis-like phenotype result is listed as “largely reduced”. In test [2] (compared to PBS-treated skin, FIG. 7A), the “IMQ-induced epithelial hyperplasia and inflammatory cell infiltration in the stroma (H&E)” value is reported as “decreases”. In test [2] (immunostaining, FIG. 7B), the “BrdU incorporation (proliferation)” value was “largely reduced; also recorded: decreased” and the “CD45 staining (inflammation)” value is “largely prevented; also recorded: decreased”. For the same molecule, the psoriasis-like phenotype entry in test [2] (injected subcutaneously, FIG. 7) is “largely reduced”. For the same molecule, the “resistance to IMQ-induction of psoriasis” value in test [2] is given as “showed resistance”.
For the molecule “GRKKRRQRRRPPQ [Tat, cell penetrating peptide alone, control, reference compound]”, the cell viability entry in [7], in [8] and in [9] was “no effect” each time.
For the molecule GRKKRRQRRRPPQLEEPGQPLDLSCKRPR [Tat-E1A], the “CtBP-mediated suppression of target genes BAX, BRCA1, E-Cadherin (transcription levels)” value in test [10] is reported as “dose-dependent alleviation; also recorded: relieves the suppression”. Moreover, the cell viability entry was “does not affect” in test [7], “reduces the viability” in [8] and “reduces the viability” in [9]. In addition, in [1], the “erythema, thickening and scaling (cumulative score)” value is listed as “Reduction”.

These data come from patent publication US9683025B2, “Methods and compositions for treating cancer and inflammatory diseases” (The Regents of the University of Colorado, A Body Corporate, priority 2013, dated 2017).
